From publication PMC9631887 (ACS Omega, 2022)

Assays:
[1] = PAMPA-GIT; conditions: for classification / experimental fraction absorption: PAMPA-GIT; for classification: fraction absorption classification; for Papp at 8 h, 500 μM: PAMPA
[2] = PAMPA-BBB
[3] = QC standards; ref Zhu et al.[29]; cited from earlier work

Row | SMILES | classification [1] | classification [2] | literature fraction absorption [3] [%] | Papp at 8 h, 500 μM [1] [×10⁻⁶ cm/s] | experimental fraction absorption [1] [%]
1 | CC(C)NCC(O)COc1ccc(CC(N)=O)cc1 (stereo not shown) [atenolol] | low (Low, 0–29% Fa) |  |  |  | 
2 | Cn1c(=O)c2c(ncn2C)n(C)c1=O [caffeine] |  | BBB– (Pe values <1.57 were classified as nonpermeable (BBB−)) |  |  | 
3 | CO/N=C(\C(=O)N[C@@H]1C(=O)N2C(C(=O)O)=C(CSc3nc(=O)c(=O)[nH]n3C)CS[C@H]12)c1csc(N)n1 [ceftriaxone] |  |  | 1 |  | 
4 | O=c1ccc2ccccc2o1 [coumarin] | high (High, 70–100% Fa) |  |  | 27.9 | 100.00
5 | O=C(O)Cc1ccccc1Nc1c(Cl)cccc1Cl [diclofenac] | high (High, 70–100% Fa) |  | 100 | 14 | 100.00
6 | CCn1cc(C(=O)O)c(=O)c2cc(F)c(N3CCNCC3)nc21 [enoxacin] |  | BBB– (Pe values <1.57 were classified as nonpermeable (BBB−)) |  |  | 
7 | C[C@]12CCC(=O)C=C1CC[C@@H]1[C@@H]2[C@@H](O)C[C@@]2(C)[C@H]1CC[C@]2(O)C(=O)CO [hydrocortisone] |  |  |  |  | 100.00
8 | CCn1cc(C(=O)O)c(=O)c2cc(F)c(N3CCNCC3)cc21 [norfloxacin] | intermediate (Intermediate, 30–69% Fa) |  |  |  | 51.39
9 | CNC(=C[N+](=O)[O-])NCCSCc1ccc(CN(C)C)o1 [ranitidine] | intermediate (Intermediate, 30–69% Fa) |  |  |  | 49.75
